Results as given in patent publication US11318141B2, “Methods and compositions related to STK1-targeted small molecules as antibiotic resistance breakers” (Ohio State Innovation Foundation, priority 2017, dated 2022).

Test system: S. aureus MW2 wild-type
Experiment: Checkerboard titration end-point bactericidal assay (MBC), Muller-Hinton agar
Assay type: cell-based, Staphylococcus aureus
Details: agent alone
Protocol: FIGS. 15A-15B show checkerboard assays for determining bactericidal assay. Serial two-fold dilutions of 2 mM of Inh2-B1 (MW=411.58 g/mol) and (A) 3 mM ceftriaxone (MW=669.7 g/mol) were made in two separate 96-well plates in vertical (B1-B12 to H1-H2 wells) and horizontal (A2-H2 to A12-H12 wells) directions respectively. Serially diluted Inh2-B1 (100 μL) in the individual well was then mixed with the 100 μL serially diluted ceftriaxone present in the corresponding wells. The resulting various combinations of Inh2-B1 (starting from 1 mM) and ceftriaxone (starting from 1.5 mM) or cefotaxime (2.1 mM) as well as serially diluted one Inh2-B1 (B1 to H1) and ceftriaxone (A2-A12) or cefotaxime (A2-A12) were then incorporated in Muller-Hinton mini agar plates (2 mL). The agar plates were then seeded and diluted S. aureus MW2-wild-type culture equivalent to approximately 23±3 CFU. This checkerboard assay was used to determine the ideal combination of lowest concentration of Inh2-B1 and ceftriaxone that kills 99.9% of the wild-type MW2.
Since the STK1 is not essential for bacterial survival and its absence results in retardation of growth, an end-point bactericidal assay was done, employing the Checkerboard titration method followed by a time-to-kill assay using the broth dilution method. The 96-well plate-based checkerboard titration assays were performed using the fixed number of CFUs of MW2 strain, and the survival of the bacteria was measured on solid agar plates as an end-point result. […] The cut-off value to designate clinical isolates of S. aureus for antibiotics, including Ceftriaxone (TX) and Cefotaxime (CT) as susceptible, is less than 4 μg/ml (i.e., <4.8 μM of TX, and <7 μM of CT). […] CFU counts of MW2-WT grown in the presence of various concentrations of Inh2-B1 were examined over a period of 16 h. […] Similarly, it was also determined CFU counts of MW2-WT and MW2ΔSTK1 strains each grown in the absence or the presence of 50 μM of Inh2-B1 and 1.5 μM Ceftriaxone (1 μg/ml) or […] Cefotaxime (1 μg/ml) for 16 h employing the broth dilution method. […] Further, to address whether MW2 or STK1 could become refractory to a potential combined therapy, the S. aureus MW2 wild-type strain was grown in the presence of suboptimal dose of Inh2-B1 alone and combination with Ceftriaxone and Cefotaxime (25 μM Inh2-B1 and 3 μM of Ceftriaxone or 3 μM Cefotaxime) for consecutive 10 generations.
Subsequently, the susceptibility of S. aureus MW2 strain to Ceftriaxone, Cefotaxime, Inh2, and Inh2-B1 was confirmed by the CLSI recommended serial dilution method using Muller Hinton broth. Minimum bactericidal activity (MBC) was measured using Muller-Hinton agar. Changes in the MBC of Ceftriaxone/Cefotaxime in the presence of serially diluted Inh2-B1 was determined in two steps. Initial screening was carried out using the Checkerboard method using Muller-Hinton agar (FIG. 15). […] Subsequent time to kill assays were carried out using 50 μM Inh2-B1 and Ceftriaxone. Cefotaxime (1 μg/ml) in a final volume of 250 μl using a sterile 96-well (U-bottom) microtiter plate over a period of 16 h at 37° C. under constant rotation (120 rpm). Optical density and corresponding CFU counts were measured at every two-hour interval up to 8 hours with a final overnight reading at the end of incubation period. CFU counts were measured using appropriate dilution of 10 μl of properly mixed samples at each time interval.

For `COC(=O)c1ccc2c(=O)[nH]c3c(C(=O)Nc4ccccc4)sc(=S)n3c2c1` [Inh2-B1, Methyl 5-oxo-3-(phenylcarbamoyl)-1-thioxo-4,5dihydro[1,3]thiazolo[3,4-a]quinazoline-8-carboxylate], the MBC (Staphylococcus aureus, MW2WILDTYPE, MW2, read-out: Minimum bactericidal concentration (MBC)) was 100 µM, the “concentration up to which growth of MW2 was seen” value (further analysis) was 90 µM and the “concentration of wells with ≥1 CFU of wild-type MW2” value (checkerboard) was no more than 50 µM.
